We go through 28 molecules from US8471005B2 (Cephalon, Inc., priority 2008, dated 2013).

Where only a bound is given, the exact number is not on record here.

For the first test, the target named is T1, ALK (Homo sapiens, UniProt Q9UM73).
T1 construct: host or cells: baculovirus expression system
T1 sequence (Q9UM73 19-1620): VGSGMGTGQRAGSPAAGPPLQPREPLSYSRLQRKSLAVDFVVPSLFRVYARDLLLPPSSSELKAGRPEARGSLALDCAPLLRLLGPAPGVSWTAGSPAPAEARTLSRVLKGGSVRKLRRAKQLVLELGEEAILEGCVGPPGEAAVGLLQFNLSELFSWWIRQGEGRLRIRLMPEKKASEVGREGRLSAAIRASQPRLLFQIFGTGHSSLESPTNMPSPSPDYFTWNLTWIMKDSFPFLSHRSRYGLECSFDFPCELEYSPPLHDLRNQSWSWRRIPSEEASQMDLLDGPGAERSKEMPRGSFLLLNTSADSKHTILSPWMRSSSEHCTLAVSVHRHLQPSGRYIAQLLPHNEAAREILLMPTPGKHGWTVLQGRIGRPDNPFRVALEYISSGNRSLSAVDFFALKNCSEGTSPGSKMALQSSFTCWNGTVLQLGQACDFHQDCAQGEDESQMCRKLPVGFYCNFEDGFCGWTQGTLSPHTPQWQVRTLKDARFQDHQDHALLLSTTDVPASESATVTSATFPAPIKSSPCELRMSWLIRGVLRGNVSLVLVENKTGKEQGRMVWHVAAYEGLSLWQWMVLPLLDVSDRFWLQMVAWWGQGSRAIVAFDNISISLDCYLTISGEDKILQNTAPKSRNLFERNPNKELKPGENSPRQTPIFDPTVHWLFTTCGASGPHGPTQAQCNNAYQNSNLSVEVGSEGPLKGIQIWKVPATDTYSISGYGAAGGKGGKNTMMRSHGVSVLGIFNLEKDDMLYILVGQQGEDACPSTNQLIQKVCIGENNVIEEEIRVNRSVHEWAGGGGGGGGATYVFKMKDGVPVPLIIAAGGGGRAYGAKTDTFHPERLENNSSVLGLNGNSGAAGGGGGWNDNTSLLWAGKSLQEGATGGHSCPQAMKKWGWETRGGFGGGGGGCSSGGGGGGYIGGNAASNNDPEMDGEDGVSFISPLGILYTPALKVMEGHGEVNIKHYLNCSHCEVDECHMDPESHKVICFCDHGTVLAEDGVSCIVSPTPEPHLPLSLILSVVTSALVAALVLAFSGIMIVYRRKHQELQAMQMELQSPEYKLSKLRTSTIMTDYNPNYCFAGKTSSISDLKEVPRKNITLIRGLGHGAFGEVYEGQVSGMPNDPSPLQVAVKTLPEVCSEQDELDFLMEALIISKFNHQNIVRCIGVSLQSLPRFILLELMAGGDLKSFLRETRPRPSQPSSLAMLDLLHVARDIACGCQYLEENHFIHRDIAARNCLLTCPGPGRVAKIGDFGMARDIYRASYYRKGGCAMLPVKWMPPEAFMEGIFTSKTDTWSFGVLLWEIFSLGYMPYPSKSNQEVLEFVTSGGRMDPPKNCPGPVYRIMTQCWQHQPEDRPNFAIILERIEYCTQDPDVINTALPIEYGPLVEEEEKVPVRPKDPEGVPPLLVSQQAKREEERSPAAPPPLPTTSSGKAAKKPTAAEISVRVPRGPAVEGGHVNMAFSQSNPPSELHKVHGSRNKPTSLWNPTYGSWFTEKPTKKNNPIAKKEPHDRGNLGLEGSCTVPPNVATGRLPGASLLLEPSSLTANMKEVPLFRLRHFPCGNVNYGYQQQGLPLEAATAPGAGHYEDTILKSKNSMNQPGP
As to the kind of experiment: ALK Kinase Assay (ELISA/TRF, PLC-γ substrate). It is filed as biochemical. As to conditions: ALK Kinase Inhibition; read-out: ALK Potency. The protocol:
Briefly, each 96-well plate was coated with […] of 10 μg/mL substrate (phospholipase C-γ) in Tris-buffered saline (TBS). […] The reaction was initiated by adding enzyme (30 ng/ml ALK) and was allowed to proceed at 37° C. for 15 minutes. Detection of the phosphorylated product was performed by adding 100 μl/well of Eu—N1 labeled PT66 antibody (Perkin Elmer # AD0041).
Data analysis was performed using ActivityBase (IDBS, Guilford, UK). IC50 values were calculated by plotting percent inhibition versus log10 of the concentration of compound and fitting to the nonlinear regression sigmoidal dose-response (variable slope) equation in XLFit (IDBS, Guilford, UK).
With `COc1ccc(-c2ccc3cnc(Nc4ccc(N5CCN(C)CC5)cc4)nn23)cn1` [Example 81, [7-(6-Methoxy-pyridin-3-yl)-pyrrolo[2,1-f][1,2,4]triazin-2-yl]-[4-(4-methyl-piperazin-1-yl)-phenyl]-amine], the IC50 is 0.1 to 1 µM. The same measure, in the same setting: the result for `CN1CCN(c2ccc(Nc3ncc4ccc(-c5ccccc5N(C)S(C)(=O)=O)n4n3)cc2Cl)CC1` [Example 1424, N-(2-{2-[3-Chloro-4-(4-methyl-piperazin-1-yl)-phenylamino]-pyrrolo[2,1-f][1,2,4]triazin-7-yl}-phenyl)-N-methyl-methanesulfonamide] reads under 0.1 µM; that for `COc1cc(N2CCC(N3CCOCC3)CC2)ccc1Nc1ncc2ccc(-c3cccc(N(C)S(C)(=O)=O)c3)n2n1` [Example 1449, N-(3-{2-[2-Methoxy-4-(4-morpholin-4-yl-piperidin-1-yl)-phenylamino]-pyrrolo[2,1-f][1,2,4]triazin-7-yl}-phenyl)-N-methyl-methanesulfonamide], under 0.1 µM. Still for that read-out and setting: then `COc1cc(N2CCCC(N3CCNCC3)C2)ccc1Nc1ncc2ccc(-c3ccccc3OC)n2n1` (stereo not shown) [Example 1448, [7-(2-Methoxy-phenyl)-pyrrolo[2,1-f][1,2,4]triazin-2-yl]-[2-methoxy-4-(3-piperazin-1-yl-piperidin-1-yl)-phenyl]-amine], with under 0.1 µM; and `COc1ccccc1-c1ccc2cnc(Nc3ccc(N4CCN(C[C@H](C)O)CC4)c(F)c3)nn12` [Example 1417, (S)-1-(4-{2-Fluoro-4-[7-(2-methoxy-phenyl)-pyrrolo[2,1-f][1,2,4]triazin-2-ylamino]-phenyl}-piperazin-1-yl)-propan-2-ol], with under 0.1 µM.

Regarding `COc1ccccc1-c1ccc2cnc(Nc3ccc(N4CCN(C)CC4)cc3)nn12` [Example 20, [7-(2-Methoxy-phenyl)-pyrrolo[2,1-f][1,2,4]triazin-2-yl]-[4-(4-methyl-piperazin-1-1)-phenyl]-amine], the IC50 is under 0.1 µM. On the same count and under the same terms, then `C[C@H](O)CN1CCN(c2ccc(Nc3ncc4ccc(-c5ccccc5N(C)S(C)(=O)=O)n4n3)cc2F)CC1` [Example 1423, N-[2-(2-{3-Fluoro-4-[4-((S)-2-hydroxy-propyl)-piperazin-1-yl]-phenylamino}-pyrrolo[2,1-f][1,2,4]triazin-7-yl)-phenyl]-N-methyl-methanesulfonamide], with under 0.1 µM. The same measure, in the same setting: then `COc1ccccc1-c1ccc2cnc(Nc3ccc(N4CCN(C)CC4)c(Cl)c3)nn12` [Example 1418, [3-Chloro-4-(4-methyl-piperazin-1-yl)-phenyl]-[7-(2-methoxy-phenyl)-pyrrolo[2,1-f][1,2,4]triazin-2-yl]-amine], with under 0.1 µM; and `COc1cc(N2CCC(N3CCOCC3)CC2)ccc1Nc1ncc2ccc(-c3cccc(NS(C)(=O)=O)c3)n2n1` [Example 1446, N-(3-{2-[2-Methoxy-4-(4-morpholin-4-yl-piperidin-1-yl)-phenylamino]-pyrrolo[2,1-f][1,2,4]triazin-7-yl}-phenyl)-methanesulfonamide], with under 0.1 µM. For `COc1ccc(-c2ccc3cnc(Nc4ccc(N5CCN(C)CC5)c(Cl)c4)nn23)cn1` [Example 1419, [3-Chloro-4-(4-methyl-piperazin-1-yl)-phenyl]-[7-(6-methoxy-pyridin-3-yl)-pyrrolo[2,1-f][1,2,4]triazin-2-yl]-amine], the IC50 fell in the range of 0.1 to 1 µM. Same read-out and setting: the result for `CN1CCN(c2ccc(Nc3ncc4ccc(-c5cccc(S(=O)(=O)NC(C)(C)C)c5)n4n3)cc2)CC1` [Example 23, N-tert-Butyl-3-{2-[4-(4-methyl-piperazin-1-yl)-phenylamino]-pyrrolo[2,1-f][1,2,4]triazin-7-yl}-benzenesulfonamide] reads under 0.1 µM; that for `C[C@H](O)CN1CCN(c2ccc(Nc3ncc4ccc(-c5cccc(S(=O)(=O)NC(C)(C)C)c5)n4n3)cc2F)CC1` [Example 1412, N-tert-Butyl-3-(2-{3-fluoro-4-[4-((S)-2-hydroxy-propyl)-piperazin-1-yl]-phenylamino}-pyrrolo[2,1-f][1,2,4]triazin-7-yl)-benzenesulfonamide], under 0.1 µM. In the case of `COc1cc(N2CCCC(N3CCN(CCO)CC3)C2)ccc1Nc1ncc2ccc(-c3ccccc3OC)n2n1` (stereo not shown) [Example 1443, 2-[4-(1-{3-Methoxy-4-[7-(2-methoxy-phenyl)-pyrrolo[2,1-f][1,2,4]triazin-2-ylamino]-phenyl}-piperidin-3-yl)-piperazin-1-yl]-ethanol], the IC50 is under 0.1 µM. Regarding `CN1CCN(c2ccc(Nc3ncc4ccc(-c5ccccc5N(C)S(C)(=O)=O)n4n3)cc2F)CC1` [Example 1421, N-(2-{2-[3-Fluoro-4-(4-methyl-piperazin-1-yl)-phenylamino]-pyrrolo[2,1-f][1,2,4]triazin-7-yl}-phenyl)-N-methyl-methanesulfonamide], the IC50 is under 0.1 µM.

Staying with this test, now noted: ALK kinase inhibition, 1 μM ATP; read-out: ALK Potency.
As to `COc1cc2c(cc1Nc1ncc3ccc(-c4ccccc4OC)n3n1)CCCC(N1CCOCC1)C2` (stereo not shown) [Example 992, (3-Methoxy-6-morpholin-4-yl-6,7,8,9-tetrahydro-5H-benzocyclohepten-2-yl)-[7-(2-methoxy-phenyl)-pyrrolo[2,1-f][1,2,4]triazin-2-yl]-amine], the IC50 was under 0.1 µM. Same read-out and setting: then `COc1cc(N2CCN(C[C@@H](O)CO)CC2)ccc1Nc1ncc2ccc(-c3ccccc3OC)n2n1` [Example 758, (R)-3-(4-{3-Methoxy-4-[7-(2-methoxy-phenyl)-pyrrolo[2,1-f][1,2,4]triazin-2-ylamino]-phenyl}-piperazin-1-yl)-propane-1,2-diol], with under 0.1 µM; and `CN1CCN(c2ccc(Nc3ncc4ccc(-c5ccccc5N(C)S(C)(=O)=O)n4n3)c(Cl)c2)CC1` [Example 507, N-(2-{2-[2-Chloro-4-(4-methyl-piperazin-1-yl)-phenylamino]-pyrrolo[2,1-f][1,2,4]triazin-7-yl}-phenyl)-N-methyl-methanesulfonamide], with under 0.1 µM. Same read-out and setting: then `COc1cc(N2CCC(N3CCNCC3)CC2)ccc1Nc1ncc2ccc(-c3ccccc3OC)n2n1` [Example 537, [7-(2-Methoxy-phenyl)-pyrrolo[2,1-f][1,2,4]triazin-2-yl]-[2-methoxy-4-(4-piperazin-1-yl-piperidin-1-yl)-phenyl]-amine], with under 0.1 µM.

As for `Cc1cc2cnc(Nc3ccc(N4CCN(C)CC4)cc3)nn2c1-c1cccc(CCC#N)c1` [Example 1160, 3-(3-{6-Methyl-2-[4-(4-methyl-piperazin-1-yl)-phenylamino]-pyrrolo[2,1-f][1,2,4]triazin-7-yl}-phenyl)-propionitrile], the IC50 was under 0.1 µM.

With `Cc1cc(-c2ccccc2N(C)S(C)(=O)=O)n2nc(Nc3ccc(C4CCN(CC(N)=O)CC4)cc3)ncc12` [Example 1261, 2-[4-(4-{7-[2-(Methanesulfonyl-methyl-amino)-phenyl]-5-methyl-pyrrolo[2,1-f][1,2,4]triazin-2-ylamino}-phenyl)-piperidin-1-yl]-acetamide], the IC50 was under 0.1 µM. The same measure, in the same setting: the result for `CS(=O)(=O)N1Cc2cccc(-c3ccc4cnc(Nc5ccc(C6CCN(CC(N)=O)CC6)cc5)nn34)c2C1` [Example 579, 2-(4-{4-[7-(2-Methanesulfonyl-2,3-dihydro-1H-isoindol-4-yl)-pyrrolo[2,1-f][1,2,4]triazin-2-ylamino]-phenyl}-piperidin-1-yl)-acetamide] reads 1 to 10 µM; that for `COc1cc(N2CCCN(C[C@H](O)CO)CC2)ccc1Nc1ncc2ccc(-c3ccccc3OC)n2n1` [Example 767, (S)-3-(4-{3-Methoxy-4-[7-(2-methoxy-phenyl)-pyrrolo[2,1-f][1,2,4]triazin-2-ylamino]-phenyl}-[1,4]diazepan-1-yl)-propane-1,2-diol], under 0.1 µM. Still for that read-out and setting: the result for `COc1cc(N2CCN(C[C@H](O)CO)CC2)ccc1Nc1ncc2ccc(-c3cc(Cl)ccc3OC)n2n1` [Example 759, (S)-3-(4-{4-[7-(5-Chloro-2-methoxy-phenyl)-pyrrolo[2,1-f][1,2,4]triazin-2-ylamino]-3-methoxy-phenyl}-piperazin-1-yl)-propane-1,2-diol] reads under 0.1 µM; that for `COc1ccc(C2CCN(C)CC2)cc1Nc1ncc2ccc(-c3ccccc3OC)n2n1` [Example 770, [2-Methoxy-5-(1-methyl-piperidin-4-yl)-phenyl]-[7-(2-methoxy-phenyl)-pyrrolo[2,1-f][1,2,4]triazin-2-yl]-amine], under 0.1 µM; that for “N-tert-Butyl-3-{2-[3-fluoro-4-(4-methyl-piperazin-1-yl)-phenylamino]-pyrrolo[2,1-f][1,2,4]triazin-7-yl}-benzenesulfonamide [Example 1216]”, 0.1 to 1 µM.

On to `COc1cc(N2CCN(C[C@H](O)CO)CC2)ccc1Nc1ncc2ccc(-c3ccccc3OC)n2n1` [Example 760, (S)-3-(4-{3-Methoxy-4-[7-(2-methoxy-phenyl)-pyrrolo[2,1-f][1,2,4]triazin-2-ylamino]-phenyl}-piperazin-1-yl)-propane-1,2-diol], for which the IC50 was under 0.1 µM. On the same count and under the same terms, the result for `CN1CCN(c2ccc(Nc3ncc4ccc(-c5ccccc5N(C)S(C)(=O)=O)n4n3)cc2)CC1` [Example 627, N-Methyl-N-(2-{2-[4-(4-methyl-piperazin-1-yl)phenylamino]pyrrolo[2,1-f][1,2,4]triazin-7-yl}phenyl)methanesulfonamide] reads under 0.1 µM. As to `COc1cc(N2CCC(N3CCN(C(C)=O)CC3)CC2)ccc1Nc1ncc2ccc(-c3ccccc3OC)n2n1` [Example 536, 1-[4-(1-{3-Methoxy-4-[7-(2-methoxy-phenyl)-pyrrolo[2,1-f][1,2,4]triazin-2-ylamino]-phenyl}-piperidin-4-yl)-piperazin-1-yl]-ethanone], the IC50 was under 0.1 µM.
